Values after ≈ are worked out from the molar mass of the structure shown. Values joined by “and” are separate entries in the source; they are usually repeats but may differ in a detail not shown here. Identical values can stand only once. Like-named read-outs stand apart in the source and are kept apart here. A value given as a limit tells only on which side of the number the result lay.

The values below come from publication PMC6625891 (ACS infectious diseases, 2019).

For series [1], the system named is Mycobacterium tuberculosis. Conditions: M. tuberculosis; cited from earlier work.
Another series relates to M. tuberculosis LeuRS. The following applies: read-out: M. tuberculosis LeuRS IC50; cited from earlier work.
The nature of series [2]: Cytotoxicity, MTT cell viability assay. Type of series: cell-based. The following applies: monkey, vero cells. Background: Tetrazolium dyes change colour on reduction, which living cells bring about.
The target in series [3] is T1, S. aureus LeuRS (saLeuRS) (Staphylococcus aureus, UniProt Q2FXH2).
T1 sequence (Q2FXH2 1-805): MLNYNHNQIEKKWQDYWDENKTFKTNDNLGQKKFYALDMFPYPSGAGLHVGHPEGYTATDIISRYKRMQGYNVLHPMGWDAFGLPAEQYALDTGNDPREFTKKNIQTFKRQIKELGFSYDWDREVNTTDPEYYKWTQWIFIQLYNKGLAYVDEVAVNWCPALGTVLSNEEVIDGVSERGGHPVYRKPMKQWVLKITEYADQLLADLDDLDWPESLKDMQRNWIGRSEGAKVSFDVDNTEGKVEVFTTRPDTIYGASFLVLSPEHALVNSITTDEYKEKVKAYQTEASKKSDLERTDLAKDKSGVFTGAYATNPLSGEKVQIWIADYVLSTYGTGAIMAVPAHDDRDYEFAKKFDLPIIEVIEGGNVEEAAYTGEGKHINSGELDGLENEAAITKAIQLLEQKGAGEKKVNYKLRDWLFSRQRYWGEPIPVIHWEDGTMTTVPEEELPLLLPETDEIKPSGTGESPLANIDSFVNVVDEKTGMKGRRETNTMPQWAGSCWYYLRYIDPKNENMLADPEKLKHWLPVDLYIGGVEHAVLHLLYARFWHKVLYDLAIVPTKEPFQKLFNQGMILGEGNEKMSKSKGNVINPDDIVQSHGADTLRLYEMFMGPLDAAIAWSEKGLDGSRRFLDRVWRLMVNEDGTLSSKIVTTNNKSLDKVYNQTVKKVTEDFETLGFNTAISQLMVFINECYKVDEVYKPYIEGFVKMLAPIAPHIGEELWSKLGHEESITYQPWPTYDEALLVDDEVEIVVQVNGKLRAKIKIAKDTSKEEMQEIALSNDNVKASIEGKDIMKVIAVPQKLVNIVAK
The series can be described thus: radiolabeled LeuRS aminoacylation assay. Type of series: biochemical.

The subject of series [4] is MRSA (ATCC BAA-1762). The series can be described thus: Post-antibiotic effect. Conditions: 1 h exposure.
In a further series the test system is saLeuRS. The following applies: read-out: IC50 (LeuRS); previously reported; ref 25 (Xia et al.); cited from earlier work.
Series [5] deals with MRSA (ATCC BAA-1762) resistant mutants. Nature of the series: microbe, parasite or virus in culture. Conditions: Staphylococcus aureus, ATCCBAA1762|MRSA, read-out: MIC of resistant colonies.
For series [6], the system named is MRSA (ATCC BAA-1762). Nature of the series: Time-kill experiments.
For the next series, the system named is S. aureus. Conditions: previously reported; cited from earlier work.
Series [7] has as its system MRSA (ATCC BAA-1762) resistant mutants. The following applies: for MIC shift: vs wild-type MRSA.
Another series concerns Vero cells. Nature of the series: Cytotoxicity, MTT cell viability assay. The following applies: Vero cells, 24 h, MTT. Format: cell-based.
In another series the test system is MRSA ATCC BAA-1762. Nature of the series: MIC by broth microdilution. Format: cell-based, Staphylococcus aureus. For orientation: In broth dilution the organism is exposed to a series of concentrations in liquid medium.
The subject of the next series is Gram-negative pathogens. The following applies: cited from earlier work.
A further series concerns Escherichia coli LeuRS. Conditions: read-out: IC50 (E. coli LeuRS); binds to the editing site; cited from earlier work.

As usually defined, the IC50 is the point on the concentration scale where inhibition reaches its midpoint. For the compound `CCOc1ccc(Cl)c2c1B(O)OC2CN` (centres unmarked) [AN6426], the MIC in [1] is 0.13 µM (≈ 0.0314 µg/mL). The IC50 in the series on M. tuberculosis LeuRS is 90 nM.

Broadly, the CC50 is the concentration giving 50% cytotoxicity. Read a low CC50 as greater toxicity to the cells. Turning to `O=[N+]([O-])c1ccc(S(=O)(=O)Nc2ccc3c(c2)B(O)OC3)cc1` [PT638], in series [2], the CC50 at 24 h was at least 100 µg/mL. Further, the IC50 in [3] is above 100000 nM; in the series with saLeuRS, above 200000 nM. Further, the “IC50 (saLeuRS aminoacylation)” value in [3] (7 nM saLeuRS, 20 min pre-incubation, triplicate) is reported as “did not inhibit saLeuRS”. Also, the “duration of the post-antibiotic effect” value in the series on MRSA (ATCC BAA-1762) [4] (0.25 × MIC) is recorded as 0.2 h; in the series with MRSA (ATCC BAA-1762) [4] (4 × MIC) it was 1.5 h. The MIC in series [5] was at least 3.12 µg/mL. Also, the results for the “reduction in cell numbers over 8 h” value with MRSA (ATCC BAA-1762) [6] (1 times the MIC), in the series on MRSA (ATCC BAA-1762) [6] (4 times the MIC) and in the series on MRSA (ATCC BAA-1762) [6] (16 times the MIC) were 1.8 log10 cfu/mL, 2.2 log10 cfu/mL and 2.7 log10 cfu/mL, respectively. The “type of antibacterial activity in time-kill” value in the series on MRSA (ATCC BAA-1762) [6] (over the course of 8 h) is listed as “bacteriostatic”. For the same compound, in the series with S. aureus, the “MIC against S. aureus” value is below 0.2 µg/mL. For the same compound, the MIC shift in series [7] (mutant strain 1, D343Y saLeuRS) is listed as 16-fold; in [7] (mutant strain 2, G303S saLeuRS), 8-fold; in [7] (mutant strain 3, F233I saLeuRS), 8-fold. The “MIC of resistant colonies relative to parent strain” value in series [7] (three colonies picked) is recorded as “at least 8 times”.

For the compound `Nc1ccc(S(=O)(=O)Nc2ccc3c(c2)B(O)OC3)cc1` [PT662], the “Cytotoxicity Vero cells (IC50)” value with Vero cells is at least 100 µg/mL. In the series on MRSA ATCC BAA-1762 (MRSA ATCC BAA-1762), the “fold increase in MIC relative to PT638” value was 8 fold. Further, in the series on MRSA ATCC BAA-1762 (MRSA ATCC BAA-1762, broth microdilution), the “MIC MRSA” value was 3.1 µg/mL and 3.125 µg/mL.

For the compound `NC[C@H]1OB(O)c2c(OCCCO)cccc21` [AN3365], the MIC in the series on Gram-negative pathogens is 0.5 to 4 µg/mL. Besides, the IC50 in the series on Escherichia coli LeuRS is 310 nM.
